The nature of data set [1]: Toxicity in human RBC assessed as hemolysis after 1 hr. In kind it is cell-based, Erythrocyte. As to conditions: for HC10: erythrocyte, 1 h; for HC50 at 1 h: red blood cells.
A further data set relates to Candida albicans. As to the kind of experiment: Antifungal activity against Candida albicans ATCC 10231 after 48 hrs by broth micro-dilution method. The class given is functional. As to conditions: ATCC 10231, 48 h.
The test system of a further data set is Enterococcus faecalis. As to the kind of experiment: Antibacterial activity against vancomycin-resistant Enterococcus faecalis ATCC 700802 after 24 hrs by broth micro-dilution method. In kind it is functional. As to conditions: ATCC 700802, 24 h. (In broth dilution the organism is exposed to a series of concentrations in liquid medium.)
The nature of data set [2]: Selectivity ratio of HC50 for human RBC to MIC for methicillin-resistant Staphylococcus aureus ATCC 33592. The class given is functional.
Data set [3] relates to Staphylococcus aureus. As to the kind of experiment: Antibacterial activity against methicillin-resistant Staphylococcus aureus ATCC 33592 assessed as lipid membrane depolarization after 10 mins by DiSC3-5 staining-based fluorescence analysis. In kind it is functional, organism-based.
The next data set concerns Klebsiella pneumoniae. As to the kind of experiment: Antibacterial activity against Klebsiella pneumoniae ATCC 13383 after 24 hrs by broth micro-dilution method. In kind it is functional. As to conditions: ATCC 13383, 24 h.
In data set [4] the test system is Staphylococcus epidermidis. Briefly: Antibacterial activity against multidrug-resistant Staphylococcus epidermidis RP62A after 24 hrs by broth micro-dilution method. In kind it is functional.
In another data set the test system is Bacillus subtilis. Briefly: Antibacterial activity against Bacillus subtilis BR151 after 24 hrs by broth micro-dilution method. In kind it is functional. As to conditions: BR151, 24 h.
The next data set concerns Escherichia coli. As to the kind of experiment: Antibacterial activity against Escherichia coli JM109 after 24 hrs by broth micro-dilution method. In kind it is functional. The note with it: JM109, 24 h.
Data set [5] deals with Staphylococcus aureus. Briefly: Antibacterial activity against methicillin-resistant Staphylococcus aureus ATCC 33592 after 24 hrs by broth micro-dilution method. In kind it is functional. The note with it: ATCC 33592, 24 h.
The subject of a further data set is Pseudomonas aeruginosa. As to the kind of experiment: Antibacterial activity against multidrug-resistant Pseudomonas aeruginosa ATCC 27853 after 24 hrs by broth micro-dilution method. In kind it is functional. The note with it: ATCC 27853, 24 h.

≈ marks a conversion by molar mass, not a printed value. Calls of active or inactive are those of the source. The rule behind the calls is not given here.

Usually HC50 stands for the concentration that lyses half of the red blood cells. For orientation: MIC means the lowest concentration found to suppress growth. Read a high MIC as weaker potency.

Turning to `CCCCCCCC/C=C\CCCCCCCC(=O)N[C@@H](CCCCN)CN(CC(N)=O)C(=O)CCCN`, in data set [1], the HC10 was determined as 40 µg/mL. In addition, the HC50 at 1 h in [1] was 100 µg/mL. In addition, the MIC in the data set with Candida albicans is 2 µg/mL (≈ 3.72 µM); in the data set with Enterococcus faecalis, 2.5 µg/mL (≈ 4.65 µM); with Klebsiella pneumoniae, 35 µg/mL (≈ 65.1 µM); in [4], 2 µg/mL (≈ 3.72 µM); against Bacillus subtilis, 2 µg/mL (≈ 3.72 µM); in the data set with Escherichia coli, 2.5 µg/mL (≈ 4.65 µM). The minimal inhibitory concentration (MIC) is 4 µg/mL (≈ 7.44 µM) against Staphylococcus aureus [5] and 3 µg/mL (≈ 5.58 µM) against Pseudomonas aeruginosa. Moreover, in data set [2], the Ratio stood at 25. Moreover, the result in the data set with Staphylococcus aureus [3] was Active.
For the compound `CCCCCCCCCCCCCCCC(=O)N[C@@H](C)CN(CC(=O)N[C@@H](C)CN(CC(=O)N[C@@H](CCC(=O)O)CN(CC(=O)N[C@@H](CCC(=O)O)CN(CC(=O)N[C@@H](CCC(=O)O)CN(CC(N)=O)C(=O)CC(=O)O)C(=O)CC(=O)O)C(=O)CC(=O)O)C(C)=O)C(C)=O`, in data set [1], the HC10 is 250 µg/mL. In [1], the HC50 at 1 h is more than 500 µg/mL. The MIC (against Candida albicans; with Enterococcus faecalis; against Klebsiella pneumoniae; in data set [4]; against Bacillus subtilis; in the data set on Escherichia coli) was more than 100 µg/mL throughout. Further, the MIC against Staphylococcus aureus [5] and against Pseudomonas aeruginosa was more than 100 µg/mL in each case.
`CCCCCCCCCCCCCCCC(=O)N[C@@H](CCCCN)CN(CC(=O)N[C@@H](CCCCN)CN(CC(N)=O)C(=O)CCCN)C(=O)CCCN`: in data set [1], the HC10 came to 40 µg/mL. For the same compound, the HC50 at 1 h in data set [1] amounted to 300 µg/mL. For the same compound, the MIC against Candida albicans stood at 2 µg/mL (≈ 2.6 µM); against Enterococcus faecalis, 8 µg/mL (≈ 10.4 µM); in the data set on Klebsiella pneumoniae it was 20 µg/mL (≈ 26 µM); in data set [4] it was 2.5 µg/mL (≈ 3.25 µM); in the data set on Bacillus subtilis it was 1.5 µg/mL (≈ 1.95 µM); with Escherichia coli, 30 µg/mL (≈ 39.1 µM). Also, the values for the MIC against Staphylococcus aureus [5] and against Pseudomonas aeruginosa were 5 µg/mL (≈ 6.51 µM) and 20 µg/mL (≈ 26 µM), respectively. The Ratio in data set [2] is 60. The outcome in the data set on Staphylococcus aureus [3] was Active.
Turning to `CCCCCCCC/C=C\CCCCCCCC(=O)N[C@@H](CCCCN)CN(CC(=O)N[C@@H](CCCCN)CN(CC(N)=O)C(=O)CCCN)C(=O)CCCN`, the HC10 in data set [1] was 250 µg/mL. Further, in data set [1], the 50% haemolytic concentration (HC50) at 1 h is more than 500 µg/mL. Also, the MIC against Candida albicans came to 2 µg/mL (≈ 2.52 µM); with Enterococcus faecalis, 5 µg/mL (≈ 6.3 µM); against Klebsiella pneumoniae it was 15 µg/mL (≈ 18.9 µM); in data set [4], 4 µg/mL (≈ 5.04 µM); with Bacillus subtilis it was 2.5 µg/mL (≈ 3.15 µM); against Escherichia coli, 10 µg/mL (≈ 12.6 µM). Further, the MIC with Staphylococcus aureus [5] is 5 µg/mL (≈ 6.3 µM); against Pseudomonas aeruginosa it was 3 µg/mL (≈ 3.78 µM). Further, the Ratio in data set [2] is more than 100. For the same compound, the outcome with Staphylococcus aureus [3] was Active.
As to `CCCCCCCC/C=C\CCCCCCCC(=O)N[C@@H](CCCCN)C(=O)N[C@@H](CCCCN)CN(CC(N)=O)C(=O)CCCN`, the HC10 in data set [1] was 80 µg/mL. In data set [1], the HC50 at 1 h is more than 500 µg/mL. The MIC stood at 5 µg/mL (≈ 7.51 µM) in the data set on Candida albicans; 2.5 µg/mL (≈ 3.75 µM) with Enterococcus faecalis; 40 µg/mL (≈ 60.1 µM) in the data set with Klebsiella pneumoniae; 2 µg/mL (≈ 3 µM) in data set [4]; 2 µg/mL (≈ 3 µM) with Bacillus subtilis; 10 µg/mL (≈ 15 µM) against Escherichia coli. For the same compound, the minimum inhibitory concentration (MIC) with Staphylococcus aureus [5] stood at 5 µg/mL (≈ 7.51 µM); with Pseudomonas aeruginosa, 15 µg/mL (≈ 22.5 µM). For the same compound, in data set [2], the Ratio was more than 100. Further, the result in the data set with Staphylococcus aureus [3] was Active.
With `CCCCCCCCCCCCCCCC(=O)N[C@@H](CCCCN)CN(CC(=O)N[C@@H](CCCCN)CN(CC(=O)N[C@@H](CCCCN)CN(CC(N)=O)C(=O)CCCN)C(=O)CCCN)C(=O)CCCN`, the HC10 in data set [1] came out at 300 µg/mL. Moreover, the HC50 at 1 h in data set [1] was more than 500 µg/mL. Further, the MIC is 2 µg/mL (≈ 1.95 µM) in the data set with Candida albicans; 10 µg/mL (≈ 9.76 µM) with Enterococcus faecalis; more than 50 µg/mL with Klebsiella pneumoniae; 2 µg/mL (≈ 1.95 µM) in data set [4]; 1.5 µg/mL (≈ 1.46 µM) against Bacillus subtilis; 20 µg/mL (≈ 19.5 µM) with Escherichia coli. The minimal inhibitory concentration (MIC) in the data set on Staphylococcus aureus [5] amounted to 5 µg/mL (≈ 4.88 µM); in the data set with Pseudomonas aeruginosa it was 15 µg/mL (≈ 14.6 µM). Further, the Ratio in data set [2] was more than 100. The result in the data set with Staphylococcus aureus [3] was Active.
Consider `CCCCCCCCCCCC(=O)N[C@@H](CCCCN)CN(CC(N)=O)C(=O)CCCN`, for which the HC10 in data set [1] worked out at 400 µg/mL. Besides, the HC50 at 1 h in data set [1] was more than 500 µg/mL. Moreover, the MIC (in the data set on Candida albicans; in the data set with Enterococcus faecalis; in the data set on Klebsiella pneumoniae; in data set [4]; in the data set on Bacillus subtilis; in the data set with Escherichia coli) was more than 50 µg/mL each time. For the same compound, the MIC against Staphylococcus aureus [5] and against Pseudomonas aeruginosa was more than 50 µg/mL in each case.

Source of the values: ChEMBL document CHEMBL2046294, “Lipo-γ-AApeptides as a new class of potent and broad-spectrum antimicrobial agents” (J Med Chem, 2012).
